According to patent publication US7521528B2, “Conformationally constrained parathyroid hormone (PTH) analogs with lactam bridges” (The General Hospital Corporation, priority 2003, dated 2009):
Positions of bridges follow the written chain, without caps; N, C: chain ends. Non-standard residues stand in square brackets, D forms with d. Residues, ends and D or L forms follow the SMILES beside them. hArg = N=C(N)NCCCC[C@H](N)C(=O)O

Key:
[1] = biological target: T1, P1R-DelNt (Homo sapiens, UniProt Q03431); test: cAMP stimulation in LdelNt-2 cells; assay type: cell-based; details: for Emax: percent of maximum response of PTH(1-11)
T1 construct: expressed in transfected cells
T1 sequence (Q03431 with tags, fused parts or gaps limits assumed): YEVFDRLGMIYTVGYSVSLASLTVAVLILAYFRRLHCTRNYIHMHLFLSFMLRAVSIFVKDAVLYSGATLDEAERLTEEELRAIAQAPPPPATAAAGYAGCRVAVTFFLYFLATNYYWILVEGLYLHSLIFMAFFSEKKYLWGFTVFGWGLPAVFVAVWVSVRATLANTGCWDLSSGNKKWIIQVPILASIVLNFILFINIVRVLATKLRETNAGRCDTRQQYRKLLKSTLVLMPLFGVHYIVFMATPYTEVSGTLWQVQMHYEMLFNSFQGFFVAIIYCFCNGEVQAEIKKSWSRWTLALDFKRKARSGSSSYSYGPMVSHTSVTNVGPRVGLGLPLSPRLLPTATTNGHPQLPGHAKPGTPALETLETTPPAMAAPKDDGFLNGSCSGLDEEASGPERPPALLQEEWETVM
Experimental: (§1) cAMP Stimulation. Stimulation of cells with peptide analogs was performed in 24-well plates. Cells were rinsed with 0.5 mL of binding buffer (50 mM Tris-HCl, 100 mM NaCl, 5 mM KCl, 2 mM CaCl2, 5% heat-inactivated horse serum, 0.5% fetal bovine serum, adjusted to pH 7.5 with HCl) and treated with 200 μL of cAMP assay buffer (Delbecco's modified Eagle's medium containing 2 mM 3-isobutyl-1-methylxanthine, 1 mg/mL bovine serum albumin, 35 mM Hepes-NaOH, pH 7.4) and 100 μL of binding buffer containing varying amounts of peptide analog (final volume=300 μL). The medium was removed after incubation for 30 to 60 minutes at room temperature, and the cells were frozen on dry ice, lysed with 0.5 mL 50 mM HCl, and refrozen ([…]). The cAMP content of the diluted lysate was determined by radioimmunoassay. The EC50 response values were calculated using nonlinear regression (see below).
(§2) Data Calculation. Calculations were performed using Microsoft® Excel. Nonlinear regression analyses of binding and cAMP dose-response data were performed using the four-parameter equation: yp=Min+[(Max−Min)/(1+(IC50/x)^slope)]. The Excel Solver function was utilized for parameter optimization, as described previously (Carter, P. H., et al., Endocrinology 140: 4972-4981 (1999); Bowen, W. P., and Jerman, J. C., Trends in Pharmacol. Sci. 16: 413-417 (1995)). Differences between paired data sets were statistically evaluated using a one-tailed Student's t-test, assuming unequal variances for the two sets.
The two-domain hypothesis of the PTH-P1R interaction mechanism predicts that the effects of the substitutions at positions 6 and 10 observed with the above PTH(1-11) analogs involve interactions (direct or indirect) that occur within the juxtamembrane region of the receptor. To test this hypothesis, P1R-DelNt was utilized. P1R-DeNt is a P1R construct that is deleted for most of the N domain yet which retains nearly full capacity to be expressed on the cell surface and to stimulate cAMP formation in response to N-terminal PTH analogs, and an LLC-PK1-derived cell line was herein established, LdelNt-2, which stably expresses P1R-DelNt.

[2] = biological target: T2, P1R (Homo sapiens, UniProt Q03431); test: cAMP stimulation in HKRK-B7 cells; assay type: cell-based; details: for Emax: cAMP response, Table 1
T2 construct: expressed in transfected cells
T2 sequence (Q03431 27-593): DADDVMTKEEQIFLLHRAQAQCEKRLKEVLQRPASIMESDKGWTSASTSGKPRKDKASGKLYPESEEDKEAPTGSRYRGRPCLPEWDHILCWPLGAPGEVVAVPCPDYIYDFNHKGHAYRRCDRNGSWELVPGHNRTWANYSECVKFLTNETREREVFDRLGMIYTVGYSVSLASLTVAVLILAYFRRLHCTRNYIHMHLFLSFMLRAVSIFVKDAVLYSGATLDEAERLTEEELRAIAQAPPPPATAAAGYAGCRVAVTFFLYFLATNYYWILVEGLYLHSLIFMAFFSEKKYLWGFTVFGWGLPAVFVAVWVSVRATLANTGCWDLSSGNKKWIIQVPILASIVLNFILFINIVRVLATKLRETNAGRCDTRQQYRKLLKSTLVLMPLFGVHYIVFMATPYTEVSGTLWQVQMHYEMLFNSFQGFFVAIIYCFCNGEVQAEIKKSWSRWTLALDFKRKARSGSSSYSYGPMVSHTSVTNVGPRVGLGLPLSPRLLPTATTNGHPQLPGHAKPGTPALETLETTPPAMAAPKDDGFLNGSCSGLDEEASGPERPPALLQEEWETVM
Experimental: as §1, §2
The functional effects of substitutions at positions 6 and 10 in PTH using a PTH(1-11) analog AlaValAlaGluIleGlnLeuMetHisGlnArg-amide as the scaffold peptide (SEQ. ID. NO. 8). The peptides were analyzed for the capacity to stimulate cAMP formation in HKRK-B7 cells, an LLC-PK1-derived cell line that expresses via stable transfection the recombinant human P1R at high density (˜950,000 receptors per cell).

[3] = biological target: T2, P1R; details: cAMP-signaling, literature (Luck et al. 1999); cited from earlier work
[4] = biological target: T3, P1R-DelNt (truncated human P1R deleted for residues 24-181) (Homo sapiens, UniProt Q03431); test: cAMP stimulation in COS-7 cells transiently transfected with P1R-DelNt; assay type: cell-based; details: for Emax: COS-7, at 1×10^−5, percent of maximum response of PTH(1-34) on P1R-WT
T3 construct: expressed in transfected cells; host or cells: COS-7 (transient transfection, FuGENE 6)
T3 sequence (Q03431 with tags, fused parts or gaps limits assumed): T1 sequence (Q03431 with tags, fused parts or gaps limits assumed)
Experimental: (§3) Cell Culture. The cell line HKRK-B28 (Takasu, H., et al., J. Bone Miner. Res. 14:11-20 (1999)) was derived from the porcine kidney cell line, LLC-PK1 by stable transfection with plasmid DNA encoding the full-length P1R and expresses ˜280,000 receptors per cell. These cells, as well as COS-7 cells and SaOS-2-B10 cells, were cultured at […] in T-75 flasks ([…]) in Dulbecco's modified Eagle's medium (DMEM) supplemented with fetal bovine serum (10%), penicillin G (20 units/ml), streptomycin sulfate (20 μg/ml) and amphotericin B (0.05 μg/ml) in a humidified atmosphere containing 5% CO2. Stock solutions of EGTA/trypsin and antibiotics were from GIBCO; fetal bovine serum was from Hyclone Laboratories (Logan, Utah). COS-7 cells sub-cultured in 24-well plates were transfected with plasmid DNA (200 ng per well) encoding the wild-type human P1R or truncated human P1R deleted for residues (24-181) (Shimizu, M., et al., J. Biol. Chem. 275:21836-21843 (2000)) that was purified by cesium chloride/ethidium bromide density gradient centrifugation, and FuGENE 6 transfection reagent (Roche Indianapolis Ind.) according to the manufacturer's recommended procedure. All cells, in 24-well plates, were treated with fresh media and shifted to 33° C. for 12 to 24 h prior to assay.
as §1
Data Calculation. Calculations were performed using Microsoft® Excel. […] Differences between paired data sets were statistically evaluated using a one-tailed Student's t-test, assuming unequal variances for the two sets.
(§4) The peptide PTH(1-34)([Tyr^34]hPTH(1-34)NH2)(SEQ. ID. NO. 11) and analogs containing the indicated residues at positions 6 and/or 10 were evaluated for the capacity to stimulate cAMP accumulation in COS-7 cells transiently transfected with either the wild-type P1R(P1R-WT) or P1R-DelNt. […]

[5] = biological target: T4, recombinant full-length P1R (Homo sapiens, UniProt Q03431); test: cAMP stimulation in HKRK-B28 cells; assay type: cell-based; details: for Emax at 1 µM: at 1×10^−6 M, percent of maximum response of PTH(1-34)
T4 construct: expressed in transfected cells
T4 sequence (Q03431 27-593): T2 sequence (Q03431 27-593)
Experimental: as §3, §1, §2
The effects of installing a direct covalent linkage between the side chains of the residues at positions 6 and 10 on PTH analog function were also assessed. To do this, paired Glu^6/Lys^10 or Lys^6/Glu^10 substitutions were introduced into an otherwise non-constrained PTH(1-14) analog scaffold AlaValAlaGluIleGln LeuMetHisGlnHarAlaLysTrp-amide (SEQ. ID. NO. 11) and formed an amide bond between the carboxylate side chain group of the introduced glutamate residue and the amino side chain group of the introduced lysine residue. For controls, a portion of each Glu/Lys- or Lys/Glu-substituted PTH(1-14) analog was preserved in the non-bridged form. The four peptides: [Glu^6, Lys^10]PTH(1-14)(linear)(SEQ. ID. NO. 24), [(Glu^6,Lys^10)lac.]PTH(1-14) cyclized via a 6-10 lactam bridge)(SEQ. ID. NO. 3), [Lys^6, Glu^10]PTH(1-14)(SEQ. ID. NO. 25), and [(Lys^6, Glu^10)lac.]PTH(1-14)(SEQ. ID. NO. 26) were first compared at a single dose of 10 μM for the capacity to stimulate cAMP formulation in HKRK-B28 cells, an LLC-PK1-derived cell line that expresses the recombinant full-length P1R at a moderate level (˜280,000 receptors per cell). […]

[6] = biological target: T5, wild-type human P1R (Homo sapiens, UniProt Q03431); test: cAMP stimulation in COS-7 cells transiently transfected with P1R-WT; assay type: cell-based; details: at 1×10^−6M, percent of maximum response of PTH(1-34) on P1R-WT
T5 construct: expressed in transfected cells; host or cells: COS-7 (transient transfection, FuGENE 6)
T5 sequence (Q03431 27-593): T2 sequence (Q03431 27-593)
Experimental: as §3
cAMP Stimulation. Stimulation of cells with peptide analogs was performed in 24-well plates. […] The cAMP content of the diluted lysate was determined by radioimmunoassay. The EC50 response values were calculated using nonlinear regression (see below).
Data Calculation. […] Differences between paired data sets were statistically evaluated using a one-tailed Student's t-test, assuming unequal variances for the two sets.
as §4

| Molecule | Emax [1] [%] | Emax [2] [%] | Emax [4] [%] | Emax at 1 µM [5] [%] | Emax at 1 µM [6] [%] | further results |
| --- | --- | --- | --- | --- | --- | --- |
| PTH(1-34): first 34 amino acids of PTH, literature data | – | – | – | – | – | EC50 [3]: ~2 nM |
| H-SVSEIALMHALGKHLNSMERVEWLRKKLQDVHNY-NH2 [[Ala^6,10]PTH(1-34)] | – | – | 44 ± 2 | 107 ± 8 | 121 ± 7 | cAMP-signaling potency (in words) ([4]; COS-7 cells expressing P1R-DelNt): as potent as PTH(1-34) |
| H-AVAEIQLMHQR-NH2 [PTH(1-11)(SEQ. ID. NO. 8), AlaValAlaGluIleGlnLeuMetHisGlnArg-amide] | 100 ± 2 | 100 ± 3 | – | – | – | EC50/potency difference versus parent PTH(1-11) [1]: 22 fold; fold increase in cAMP formation/accumulation [1]: 55 fold; maximum cAMP response observed ([1]; n=3): 113±4 pM of cAMP per well; fold increase in cAMP formation [2]: 75 fold |
| CC[C@H](C)[C@H](NC(=O)[C@H](CCC(=O)O)NC(=O)[C@H](C)NC(=O)[C@@H](NC(=O)[C@H](C)N)C(C)C)C(=O)N[C@H]1CCC(=O)NCCCC[C@@H](C(=O)N[C@@H](CCCCNC(=N)N)C(=O)N[C@@H](C)C(=O)N[C@@H](CCCCN)C(=O)N[C@@H](Cc2c[nH]c3ccccc23)C(N)=O)NC(=O)[C@H](Cc2c[nH]cn2)NC(=O)[C@H](CCSC)NC(=O)[C@H](CC(C)C)NC1=O [[(Glu^6, Lys^10)lac.]PTH(1-14), AlaValAlaGluIleGluLeuMetHisLysHarAlaLysTrp cyclized via a 6-10 lactam bridge] (H-AVAEIELMHK[hArg]AKW-NH2; lactam 6-10) | – | – | – | – | – | capacity to stimulate cAMP formation at a single dose ([5]; 10 μM): comparable to that of its linear counterpart; Emax ([5]; percent of maximum response of PTH(1-14), Table 3): 52 ± 3% |

Second part, led by results:

| Emax [1] [%] | Emax [2] [%] | Emax [4] [%] | Emax at 1 µM [5] [%] | Emax at 1 µM [6] [%] | Molecule | further results |
| --- | --- | --- | --- | --- | --- | --- |
| 42 ± 5 | 41 ± 2 | – | – | – | H-AVAEIALMHAR-NH2 [[Ala^6, Ala^10]PTH(1-11)] | potency relative to [Ala^6]PTH(1-11) [1]: two-fold lower; potency relative to [Ala^6]PTH(1-11) [2]: two-fold greater |
| 79 ± 5 | 88 ± 5 | – | – | – | H-AVAEIQLMHAR-NH2 [[Ala^10]PTH(1-11)] | – |
| – | – | 4.5 ± 0.9 | 105 ± 10 | 104 ± 2 | H-SVSEIALMHNLGKHLNSMERVEWLRKKLQDVHNY-NH2 [[Ala^6]PTH(1-34)] | – |
| 14 ± 2 | 26 ± 2 | – | – | – | H-AVAEIALMHQR-NH2 [[Ala^6]PTH(1-11)] | EC50/potency difference versus parent PTH(1-11) [1]: ~3 fold |
| – | – | 46 ± 2 | 106 ± 7 | 96 ± 4 | H-SVSEIQLMHALGKHLNSMERVEWLRKKLQDVHNY-NH2 [[Ala^10]PTH(1-34)] | – |
